Measurements: patent publication US6989397B1, “Iron chelators and uses thereof” (University of Queensland, priority 1999, dated 2006)
Values joined by “and” are separate entries in the source; they are usually repeats but may differ in a detail not shown here. Equal entries are not always repeated. Where two headings read alike, the source gives them in different places.

Assays:
BE-2 neuroblastoma cells = assay: internalized 59Fe uptake from 59Fe-transferrin; type: cell-based; details: 59Fe-transferrin 0.75 μM, 3 h at 37° C., chelators 50 μM, DFO 100 μM, mean±SD
Protocol: (§1) The effect of chelators on ^59Fe uptake from ^59Fe-Tf and ^59Fe release from prelabelled cells was studied using standard procedures reported previously (Richardson et al., 1994, J. Lab Clin. Med. 124 660–71). The amount of ^59Fe internalized by the cells was measured by incubation with the general protease pronase (1 mg/ml) for 30 min at 4° C. to remove membrane-bound ^59Fe and Tf (Richardson et al., 1990; Baker et al., 1998, Biochim. Biophys. Acta 1380 21–30).
Table 2. The effect of DFO, 311, PCTH, PCBH, or PCBHH on internalized ^59Fe uptake from ^59Fe-transferrin by BE-2 neuroblastoma cells, SK-N-MC neuroepithelioma cells, and SK-Mel-28 melanoma cells. Cells were incubated with the chelators and ^59Fe-transferrin (0.75 μM) for 3 h at 37° C., washed, and incubated for 30 min at 4° C. with pronase (1 mg/ml) to separate the internalized from the membrane-bound ^59Fe. All chelators were screened at a concentration of 50 μM except for DFO which was examined at 100 μM. Results are mean±SD (three determinations) from a typical experiment.

SK-Mel-28 melanoma cells = assay: 59Fe release from prelabelled cells (iron efflux); type: cell-based, human; details: labelled 3 h with 59Fe-transferrin 0.75 μM, reincubated 3 h at 37° C., chelators 50 μM, DFO 100 μM, Mean±SD
Protocol: as §1
Table 1. The effect of DFO, 311, PCTH, PCBH, or PCBHH on ^59Fe release from BE-2 neuroblastoma cells, SK-N-MC neuroepithelioma cells, and SK-Mel-28 melanoma cells. Cells were labeled for 3 h at 37° C. with ^59Fe-transferrin (0.75 μM), washed, and then reincubated with the chelators for 3 h at 37° C. […] Results are Mean±SD of three determinations in a typical experiment.

[1] = system: SK-N-MC neuroepithelioma cells; assay: cellular proliferation, MTT assay; type: cell-based, human; details: 90 h incubation, chelators 0.39–50 μM, read-out: IC50, inhibition of growth of SK-N-MC cells
Protocol: FIG. 4. The effect of chelator concentration on the proliferation of SK-N-MC neuroepithelioma cells. Cells were incubated in the presence and absence of the chelators (0–50 μM) for 90 h at 37° C. After this incubation period, cellular density was measured via the MTT assay. Each data point represents the mean of four replicates in a typical experiment of two experiments performed.
The effects of the chelators on the proliferation of SK-N-MC neuroepithelioma cells were examined using the MTT (3-(4,5-dimethylthiazol-2-yl)-2,5-diphenyltetrazolium) assay by essentially the same method as described previously (Richardson et al., 1995). Cellular proliferation was examined by seeding cells in 96-well microtitre plates at 15,000 cells/well in 0.1 mL of complete medium containing human diferric Tf (1.25 μM). […] The cells were allowed to grow overnight and the chelators were then added in 0.1 mL of complete medium containing differic transferrin (1.25 μM). The final concentrations of the chelators were 0.39–50 μM. Control samples contained complete medium and diferric Tf (1.25 μM). Cells were incubated with the chelators for 90 hrs at 37° C. in a humidified atmosphere containing 95% air and 5% CO2. After this incubation, 0.01 mL of MTT was added to each well and the plates incubated for 2 hrs at 37° C. The cells were solubilized by adding 0.1 mL of 10% SDS-50% isobutanol in 0.01 M HCl and the plates were read at 570 nm on a scanning multiwell spectrophotometer (Titertek Multiscan; Beckman Instruments Inc., California). As shown previously for the SK-N-MC cell line, MTT colour formation was directly proportional to the number of viable cells (Richardson et al., 1995).

Row | Structure (SMILES) | Internalised Iron Uptake (% Control) (BE-2 neuroblastoma cells) | % Cellular Iron Released (SK-Mel-28 melanoma cells) [%] | IC50 [1] [µM] | IC50 ([1]; Homo sapiens, SK-N-MC) [µM]
1 | O=C(NN=Cc1c(O)ccc2ccccc12)c1ccncc1 [Chelator 311, 2-hydroxy-1-naphthylaldehyde isonicotinoyl hydrazone, reference compound] | 8 ± 1 % Control | 70 ± 1 | 2 | –
2 | CC(=O)N(O)CCCCCNC(=O)CCC(=O)N(O)CCCCCNC(=O)CCC(=O)N(O)CCCCCN [DFO, desferrioxamine, reference compound] | 42 % Control and 42 ± 3 % Control | 27 ± 1 | – | 47
3 | O=C(NN=Cc1ccccn1)c1ccccc1 [PCBH, 2-pyridylcarboxaldehyde benzoyl hydrazone] | 25 ± 4 % Control | 54 ± 4 | 50 | –
4 | O=C(NN=Cc1ccccn1)c1cccs1 [PCTH, 2-pyridylcarboxaldehyde 2-thiophenecarboxyl hydrazone] | 25 ± 3 % Control | 57 ± 6 | – | –
